# According to patent US9260473B2, “Bivalent multifunctional ligands targeting Aβ oligomers as treatment for Alzheimer's disease” (Virginia Commonwealth University, priority 2010, dated 2016):
# Columns and labels:
# SH-SY5Y cells = assay: Cytotoxicity assay in differentiated SH-SY5Y cells treated with AβOs; assay type: cell-based, human; details: AβOs 1 μM, 48 hrs, all of the tested concentrations
# Experimental: To further verify whether 14 can protect cells from extracellular AβOs-induced cytotoxicity, all trans-retinoic acid differentiated human SH-SY5Y cells were employed.
# Cytotoxicity assay in differentiated SH-SY5Y cells. SH-SY5Y cells were plated at 10,000 cells/well in type 1 collagen coated 96-well plates (Invitrogen) and were differentiated in Opti-MEM supplemented with 2% B-27 (Invitrogen) and 10 μM all-trans-retinoic acid for 7 days. The medium was removed and replaced with fresh maintenance medium. Freshly prepared Aβ42 oligomers in Ham's F-12 medium (1 μM) was added to cells for 48 hrs at 37° C. with or without test compounds. After treatment, 20 uL CellTiter 96 AQueous One Solution (Promega, Madison, Wis.) were added to each well and the plates were incubated at 37° C., 5% CO2 for 2-4 hrs. The plates were read at 490 nm in FlexStation III plate reader (Molecular Devices). Each data point was averaged from six replicates and the experiments were independently repeated at least three times.
# [1] = biological target: bovine serum albumin (BSA) (Bos taurus, UniProt P02769); assay: Fluorescence polarization binding to BSA; details: read-out: binding affinity to BSA (Kd)
# bovine serum albumin (BSA), sequence (P02769 25-607): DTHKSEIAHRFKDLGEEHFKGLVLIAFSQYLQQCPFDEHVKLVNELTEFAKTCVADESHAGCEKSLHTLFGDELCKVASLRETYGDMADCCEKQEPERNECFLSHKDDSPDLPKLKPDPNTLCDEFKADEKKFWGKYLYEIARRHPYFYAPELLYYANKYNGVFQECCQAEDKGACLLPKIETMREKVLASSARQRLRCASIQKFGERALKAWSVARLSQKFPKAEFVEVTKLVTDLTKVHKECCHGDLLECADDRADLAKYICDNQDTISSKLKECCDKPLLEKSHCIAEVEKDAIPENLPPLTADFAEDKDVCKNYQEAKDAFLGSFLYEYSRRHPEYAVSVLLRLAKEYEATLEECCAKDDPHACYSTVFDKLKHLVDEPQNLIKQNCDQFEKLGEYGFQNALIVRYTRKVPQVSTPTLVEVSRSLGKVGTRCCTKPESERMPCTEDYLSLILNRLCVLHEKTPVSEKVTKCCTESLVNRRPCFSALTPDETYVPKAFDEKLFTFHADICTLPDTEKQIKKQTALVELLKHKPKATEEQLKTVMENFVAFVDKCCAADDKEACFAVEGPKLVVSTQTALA
# Experimental: (§1) FIG. 8A-C. BMAOI 14 binds to Aβ42 monomers, oligomers, and fibrils, but not BSA. A. The monomers, oligomers and fibrils of Aβ42 were prepared according to established protocols and confirmed by TEM; B. Compound 14 (1 μM) was incubated with different forms of Aβ42 at indicated concentrations for 3 hrs. Then, fluorescence polarization change of 14 was recorded and the binding affinity was calculated; C. Compound 14 was incubated with BSA as described in B and the binding affinity was calculated.
# (§2) To determine the binding affinity of 14 to Aβ, we evaluated changes in fluorescence polarization values of this probe at different 14:Aβ ratios for monomeric, oligomeric, and fibrillary Aβ species, respectively. Aβ42 is chosen to evaluate the binding of probe as it is the major and most sticky amyloid peptide found in AD plaques.^1 The formation of different Aβ42 species was confirmed by transmission electron microscope (TEM) as shown in FIG. 8A. […] It appears that 14 binds to Aβ42 with micromolar affinity and slightly favors […] fibrils over monomers and oligomers.
# Aβ42 fibrils = biological target: T1, Aβ42 fibrils (Homo sapiens, UniProt P05067); assay: Fluorescence polarization binding to Aβ42 fibrils; details: compound 1 μM, 3 hrs, read-out: apparent binding constant (Kd) for Aβ42 fibrils
# T1 construct: The monomers, oligomers and fibrils of Aβ42 were prepared according to established protocols and confirmed by TEM
# T1 sequence (P05067 672-713 limits assumed): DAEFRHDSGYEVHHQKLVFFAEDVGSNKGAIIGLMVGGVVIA
# Experimental: as §1, §2
# AβOs = assay: Western blot assay of AβOs formation in MC65 cells (6E10 antibody); assay type: cell-based, human; details: 10 μM, 24 hrs after removal of TC
# Excerpt: Inhibition of AβOs production by designed BMAOIs. […] The whole cell assay is a composite of not only Aβ oligomerization inhibition but also permeability, stability and other factors will validate the accessibility and function of our BMAOIs. MC65 is a human neuroblastoma cell line that conditionally expresses C99, the C-terminus fragment of APP using tetracycline (TC) as transgene suppressor.^38 Upon removal of TC, these cells can produce intracellular Aβ aggregates including small AβOs. […] All BMAOIs were first evaluated at a single concentration of 10 μM. Candidate compounds with inhibitory activities at this concentration were further evaluated in a dose-dependent manner in the following assays. […]
# Western blot assay. […] Pellet was lysed by sonication in 1× lysis buffer (62.5 mM Tris base, pH6.8, 2% SDS, 50 mM DTT, 10% glycerol, 0.1% bromphenol blue, and […] each chymostatin, leupeptin, aprotinin, pepstatin, and soybean trypsin inhibitor) and protein level was determined using Coomassie Protein Assay Reagent (Pierce, Rockford, Ill.). […]
# [2] = tested on: intracellular oxidative stress; assay: DCFH-DA antioxidation assay in MC65 cells; assay type: cell-based, human; details: −TC, 24 hrs
# Experimental: DCFH-DA antioxidation assay. MC65 cells were seeded in 96-well plates (4×10^4 cells/well). After incubation at 37° C., 5% CO2 for 24 hrs, the medium was removed and washed with PBS. Opti-MEM and test compounds were added (+TC, −TC, and blank with only test compounds). MC65 cells were incubated at 37° C., 5% CO2 for 24 hrs. Then DCFH-DA in Opti-MEM was added to each well (final DCFH-DA concentration was 25 uM) and incubate at 37° C., 5% CO2 for 30 min. The medium was removed and replaced with fresh opti-MEM and plates were read for fluorescence intensity at 485 nm (excitation)/530 nm (emission) using FlexStation III plate reader (Molecular Devices).
# Aβ42 = biological target: T2, Aβ42 (Homo sapiens, UniProt P05067); assay: Aβ42 oligomerization inhibition assay (Western blot); assay type: biochemical; details: Aβ42 5 μM, compound 20 μM, 4 hrs at 37° C.
# T2 construct: Aβ42 was obtained from American Peptide, Inc. (Sunnyvale, Calif.); purchased American Peptide, Inc. (Sunnyvale, Calif.)
# T2 sequence (P05067 672-713 limits assumed): as above
# in vitro = details: human, Caco-2
# Experimental: Assessment of permeability and P-glycoprotein using Caco-2 cell model. […] To test whether 14 has the potential to reach the brain, we determined its permeability and transport directionality using the Caco-2 model.^48 Although the Caco-2 cell monolayer model is derived from the colon rather than the brain, this model expresses efflux transporters such as P-glycoprotein which are also expressed at the BBB.
# Caco-2 permeability assay. Caco-2 cells (ATCC, Manassas, Va.) were cultured in high-glucose DMEM supplemented with 10% FBS and used between passages 30-50. Caco-2 cells were plated on 12-well polyester transwell inserts ([…] pore size) (Coming #3460) at a density of 80,000 cells/cm^2 and grown to 100% confluence (21 days). Filters were rinsed in Hank's balanced salt solution (HBSS) and test compounds (10 μM) were added to either the apical (0.5 mL) or basolateral (1.5 mL) side and incubated at 37° C. with shaking (100 rpm). Samples (200 μL) were removed at 30, 60, and 120 minutes with replacement of an equal volume of the appropriate buffer containing or lacking the compounds. Samples were stored at −20° C. until analysis. After 120 minutes, lucifer yellow was added to the donor chamber, with additional sampling as above at 10, 20, and 30 minutes. Lucifer yellow was analyzed by fluorescence (excitation 450 nm, emission 528 nm) in a Synergy 2 microplate reader. […] Buffer samples (200 μL) were mixed with acetonitrile (100 μL) and acetic acid (2 μL), vortexed and centrifuged at 4° C. for 5 minutes at 12,000 ref. Supernatants (100 μL) were injected onto an Alltech Alltima HP C18 4.6×100 mm 3 μm column and eluted with 38% acetonitrile, 62% aqueous (1% acetic acid in water) at 1.0 mL/min. To improve sensitivity over UV detection, fluorescence (Waters 2475) at the excitation/emission wavelengths of 443/533 and 274/305 (nm) for 1 and 14, respectively, was also detected. Permeability was determined according to Fick's Law. Efflux transport activity was defined as a permeability directional ratio (efflux ratio) ≧2.
compound,measurement,setting,value
COc1cc(C=CC(=O)C(Cc2cn(CCCCCCNC(=O)CCNC(=O)CCNC(=O)COC3CCC4(C)C(=CCC5C4CCC4(C)C(C(C)CCCC(C)C)CCC54)C3)nn2)C(=O)C=Cc2ccc(O)c(OC)c2)ccc1O (stereo not drawn) [BMAOI 14],protection of SH-SY5Y cell viability from AβOs,SH-SY5Y cells,completely restored the cell viability
same,Kd,[1],~120 µM
same,Kd,Aβ42 fibrils,830 nM
same,inhibition of the formation of AβOs (Western blot),AβOs,significantly inhibited
same,suppression of intracellular oxidative stress (DCFH-DA fluorescence),[2],suppressed the intracellular oxidative stress in a dose-depndent manner
same,inhibition of oligomerization of Aβ42,Aβ42,inhibited the oligomerization of Aβ42
same,"Papp A→B at 120 min, 10 µM",in vitro,7.1 ×10⁻⁶ cm/s
same,"Papp B→A at 120 min, 10 µM",in vitro,4.7 ×10⁻⁶ cm/s
same,"efflux ratio at 120 min, 10 µM",in vitro,0.63
